In patent US4735943A, “Eburnamonine oxime derivatives, salts thereof, and pharmaceutical agents containing the same” (Sanwa Kagaku Kenkyusho Co., Ltd., priority 1984, dated 1988):

What was measured:
[1] = test system: erythrocyte deformability; test: Acceleration on Erythrocyte Deformability (filtration-pressure method); assay type: in vivo, Wister male rats; settings: rats, 10 mg/kg oral, blood 1 h after administration, 0.1% erythrocyte suspension
Procedure: (Acceleration on Erythrocyte Deformability) Each of testing compounds was orally administered to an amount of 10 mg/kg to Wister male rats (about 250 g, 5 animals/group). After one hour from the administration, blood sample was collected to prepare 0.1% erythrocyte suspension. An action of the compound to an erythrocyte deformability was studied in accordance with a filtration-pressure method to obtain results as shown in following Table 5.

d,d-mice = test: Cerebral Function Protection (recovery after rod dropped on vertex); assay type: in vivo, male; settings: 10 mg/kg oral, 30 min before, negative values given as "not effective"
Procedure: (Cerebral Function Protection) To each of male d,d-mice (16-24 g, 6 to 24 animals/group), each of testing compounds was orally administered in an amount of 10 mg/kg. After 30 minutes from the administration, a cylindrical rod made of bakelite (diameter: 1 cm, weight: 36 g) was free dropped with a level height of 40 cm on a vertex of the mouse to hypnotize the same, in accordance with a method disclosed by […] et al ["Tyaku-no-Ayumi (The Progress in Medicines)", 104 (4), 253, 1978]. Observations were continued until a recovering reflex from the lethargy and a spontaneous motion appear to determine a reduction ratio of time period on such behavior appearances.

[2] = test system: ADP aggregation of platelets; test: Depression on Blood Platelet Aggregation, ADP; assay type: cell-based, Wister male rat; settings: in vitro, rat platelet plasma, read-out: depression Ratio to ADP; for inhibition at 10 µg/mL: final conc. 10 μg/ml, negative values given as "not effective"
Excerpt: (§1) (Depression on Blood Platelet Aggregation) With use of a blood-plasma with excess platelets (obtained from a Wister male rat, about 250 g), a depressing effect of each testing compound to ADP and collagen aggregations was studied in vitro (3 to 5 samples/group).Results are shown in following Table 4.

[3] = test system: brain of rats with an essential hypertension (SHR); test: Cerebral Metabolic Activation (cerebral ischemia by ligation of both common carotid arteries); assay type: in vivo, male); settings: 10 mg/kg oral 1 h after ligation, measured 5 h after ligation
Procedure: (Cerebral Metabolic Activation) According to a known method [Fujishima et al, "Rinshou-to-Kenkyu (The Clinics and Studies)" 51, 3532, 1974], both common carotid arteries of rats with an essential hypertension (SHR, male, 250-350 g, 4 to 5 animals/group) were ligated to cause a cerebral ischemia. After one hour from the ligation, each of testing compounds was orally administered in an amount of 10 mg/kg and various parameters in brain were measured at the time having lapsed 5 hours from the ligation.

[4] = test system: blood flow in vertebral artery; test: Cerebral Blood Flow Increase (blood flow in vertebral artery, electromagnetic rheometer); assay type: in vivo; settings: anesthetized mongrel dogs, 1.0 mg/dog into vertebral artery
Procedure: (Cerebral Blood Flow Increase) Male and female mongrel dogs anesthetized with nembutal (sodium pentobarbital) were employed as subject and a blood flow in vertebral artery of those animals were measured with use of an electromagnetic rheometer. Each of testing compounds was administered to vertebral artery in a ratio of 1.0 mg/dog to determine a change in blood flow in the vertebral artery.

[5] = test system: collagen aggregation of platelets; test: Depression on Blood Platelet Aggregation, collagen; assay type: cell-based, Wister male rat; settings: in vitro, rat platelet plasma, read-out: depression Ratio to Collagen; for inhibition at 10 µg/mL: final conc. 10 μg/ml
Excerpt: as §1

in vivo = settings: mouse, male mice, oral, mortality after 72 hours

Structure (SMILES)	Reduction Rate in Filtering Pressure [1] [%]	Reduction ratio, time to appear spontaneous motion (d,d-mice) [%]	Reduction ratio, time to recover sit-up reflex (d,d-mice) [%]	inhibition at 10 µg/mL [2] [%]	Amount of ATP in brain [3] [µmol/g]	Amount of Glucose in brain [3] [nmol/g]	Amount of Lactic acid in brain [3] [µmol/g]	Increase in Blood Flow [4] [%]	inhibition at 10 µg/mL [5] [%]	LD50 at 72 h (in vivo) [mg/kg]	inhibition at 2 µg/mL ([2]; final conc. 2 μg/ml) [%]	inhibition at 2 µg/mL ([5]; final conc. 2 μg/ml) [%]
CC[C@]12CCCN3CCc4c(n(c5ccccc45)C(=NO)C1)[C@@H]32 [Reference Example, (3α,16α)-eburnamenin-14(15H)-one oxime]	8.3	-5.3	-12.4	-1.2	0.20	592	7.10	144.9	5.4	510	–	–
CCN(CC)CCON=C1C[C@]2(CC)CCCN3CCc4c(n1c1ccccc41)[C@@H]32 [Example 2, (3α,16α)-eburnamenin-14(15H)-one O-[2-(N,N-diethylamino)ethyl]oxime]	6.0	48.7	54.3	–	0.36	1030	4.62	269.5	–	611	5.7	73.8
CCOC(=O)C1=C[C@]2(CC)CCCN3CCc4c(n1c1ccccc41)[C@@H]32 [vinpocetine, reference compound]	46.3	–	–	-0.2	0.36	1120	7.00	261.4	4	–	–	–
CC[C@]12CCCN3CCc4c(n(c5ccccc45)C(=NOCCN4CCCC4)C1)[C@@H]32 [Example 4, (3α,16α)-eburnamenin-14(15H)-one O-[2-(1-pyrrolidinyl)ethyl]oxime]	9.3	-71.6	-96.1	-10	0.25	896	6.34	260.6	4.4	532	–	–
CC[C@]12CCCN3CCc4c(n(c5ccccc45)C(=NOCCN4CCN(c5ccccc5OC)CC4)C1)[C@@H]32 [Example 5, (3α,16α)-eburnamenin 14(15H)-one O-{2-[4-(2-methoxyphenyl)-1-piperazinyl]ethyl}oxime]	13.2	6.9	0.4	5.5	0.28	802	5.50	179.3	9.3	660	–	–
CC[C@]12CCCN3CCc4c(n(c5ccccc45)C(=NOCCN(C)C)C1)[C@@H]32 [Example 3, (3α,16α)-eburnamenin-14(15H)-one O-[2-(N,N-dimethylamino)ethyl]oxime]	10.2	-11.3	-33.0	5	0.18	740	7.01	247.3	3.2	700	–	–
CC[C@]12CCCN3CCc4c(n(c5ccccc45)C(=NOCC(O)CN4CCN(c5ccccc5OC)CC4)C1)[C@@H]32 (stereo partly drawn) [Example 6, (3α,16α)-eburnamenin-14(15H)-one O-{2-hydroxy-3-[4-(2-methoxyphenyl)-1-piperazinyl]propyl}oxime]	35.1	47.2	23.5	6.3	0.32	1010	4.95	357.7	9.5	560	–	–
